Test results reported in the supplement of paper PMC10307832.

What was measured:
Pemetrexed + Phenformin = compound: Nc1nc2[nH]cc(CCc3ccc(C(=O)N[C@@H](CCC(=O)O)C(=O)O)cc3)c2c(=O)[nH]1 [Pemetrexed] + N=C(N)NC(=N)NCCc1ccccc1 [Phenformin] (partner 250 µM); assay: relative viability (nuclei count vs DMSO), 5 days (fraction); higher = more cells survive
Summary of the method: (§1)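 For relative viability, nuclei counts in treated wells were divided by those in vehicle wells. Lung cancer cell lines had been pin-tool dosed in 1536-well plates the day after seeding and cultured for 5 days, then fixed and stained in one step (final 0.05% Triton X-100, 1% formaldehyde, 1 ug/ml Hoechst) and imaged at 4×. Doses were one drug alone or a fixed anchor-drug dose plus five library-drug doses (not always all listed) in √10 steps, and values are duplicate-plate medians.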

Idelalisib + Palbociclib = compound: CC[C@H](Nc1ncnc2[nH]cnc12)c1nc2cccc(F)c2c(=O)n1-c1ccccc1 [Idelalisib] + CC(=O)c1c(C)c2cnc(Nc3ccc(N4CCNCC4)cn3)nc2n(C2CCCC2)c1=O [Palbociclib] (partner 0.5 µM); assay: as above
Summary of the method: as §1

Row | Cell Line | relative viability (Pemetrexed + Phenformin; first compound 0.002 µM) | relative viability (Pemetrexed + Phenformin; first compound 0.006325 µM) | relative viability (Pemetrexed + Phenformin; first compound 0.02 µM) | relative viability (Pemetrexed + Phenformin; first compound 0.06325 µM) | relative viability (Pemetrexed + Phenformin; first compound 0.2 µM) | relative viability (Idelalisib + Palbociclib; first compound 0.04 µM) | relative viability (Idelalisib + Palbociclib; first compound 0.1265 µM) | relative viability (Idelalisib + Palbociclib; first compound 0.4 µM) | relative viability (Idelalisib + Palbociclib; first compound 1.265 µM) | relative viability (Idelalisib + Palbociclib; first compound 4 µM)
1 | EKVX | 0.246 | 0.284 | 0.26 | 0.254 | 0.206 | 0.362 | 0.373 | 0.358 | 0.325 | 0.298
2 | NCI-H2085 | 0.664 | 0.685 | 0.735 | 0.808 | 0.779 | 0.466 | 0.445 | 0.483 | 0.422 | 0.464
3 | NCI-H3122 | 0.419 | 0.37 | 0.374 | 0.336 | 0.205 | 0.172 | 0.195 | 0.185 | 0.214 | 0.203
4 | HCC-827 | 0.366 | 0.417 | 0.436 | 0.4 | 0.37 | 0.507 | 0.471 | 0.426 | 0.349 | 0.378
5 | HARA | 0.402 | 0.447 | 0.508 | 0.297 | 0.137 | 0.334 | 0.223 | 0.261 | 0.238 | 0.225
6 | NCI-H441 | 0.594 | 0.793 | 0.515 | 0.555 | 0.393 | 0.231 | 0.155 | – | 0.23 | 0.182
7 | NCI-H2342 | 0.501 | 0.6 | 0.526 | 0.54 | 0.618 | 0.485 | 0.495 | 0.484 | 0.519 | 0.473
8 | SK-MES-1 | 0.647 | 0.638 | 0.705 | 0.642 | 0.614 | 0.296 | 0.311 | 0.299 | 0.315 | 0.288
9 | NCI-H1648 | – | – | – | – | – | 0.239 | 0.291 | 0.298 | 0.262 | 0.315
10 | HCC-15 | 0.439 | 0.455 | 0.531 | 0.372 | 0.21 | 0.815 | 0.73 | 0.633 | 0.832 | 0.598
11 | ABC-1 | 0.283 | 0.24 | 0.26 | 0.283 | 0.249 | 0.546 | 0.6 | 0.664 | 0.686 | 0.709
12 | EPLC-272H | 0.242 | 0.315 | 0.333 | 0.292 | 0.267 | 0.724 | 0.346 | 0.29 | 0.307 | 0.322
13 | NCI-H2009 | 0.466 | 0.494 | 0.539 | 0.47 | 0.477 | 0.259 | 0.224 | 0.176 | 0.202 | 0.13
14 | NCI-H661 | 0.288 | 0.28 | 0.286 | 0.276 | 0.273 | 0.417 | 0.425 | 0.398 | 0.459 | 0.421
15 | NCI-H520 | 0.567 | 0.756 | 0.756 | 0.65 | 0.501 | 0.24 | 0.184 | 0.193 | 0.185 | 0.156
16 | NCI-H1563 | 0.745 | 0.649 | 0.67 | 0.651 | 0.64 | – | – | – | – | –
17 | NCI-H2405 | 0.37 | 0.362 | 0.423 | 0.432 | 0.392 | 0.539 | 0.484 | 0.494 | 0.512 | 0.486
18 | LCLC-97TM1 | 0.432 | 0.392 | 0.466 | 0.44 | 0.396 | 0.247 | 0.248 | 0.179 | 0.239 | 0.158

Row | Cell Line | relative viability (Pemetrexed + Phenformin; first compound 0.002 µM) | relative viability (Pemetrexed + Phenformin; first compound 0.006325 µM) | relative viability (Pemetrexed + Phenformin; first compound 0.02 µM) | relative viability (Pemetrexed + Phenformin; first compound 0.06325 µM) | relative viability (Pemetrexed + Phenformin; first compound 0.2 µM) | relative viability (Idelalisib + Palbociclib; first compound 0.04 µM) | relative viability (Idelalisib + Palbociclib; first compound 0.1265 µM) | relative viability (Idelalisib + Palbociclib; first compound 0.4 µM) | relative viability (Idelalisib + Palbociclib; first compound 1.265 µM) | relative viability (Idelalisib + Palbociclib; first compound 4 µM)
19 | NCI-H727 | – | 0.484 | 0.474 | 0.633 | 0.525 | 0.7 | 0.566 | 0.648 | 0.786 | 0.619
20 | NCI-H522 | 0.739 | 0.593 | 0.77 | 0.692 | 0.583 | 0.958 | 0.793 | 0.903 | 0.947 | 0.796
21 | NCI-H1623 | 0.575 | 0.588 | 0.564 | 0.627 | 0.598 | – | – | – | – | –
22 | NCI-H2228 | 0.308 | – | 0.268 | 0.2 | 0.184 | 0.633 | 0.846 | 0.737 | 0.958 | 0.743
23 | LK-2 | 0.51 | 0.475 | 0.883 | 0.376 | 0.267 | 0.603 | 0.832 | – | 0.609 | 0.659
24 | PC-3 [JPC-3] | 0.476 | 0.517 | 0.537 | 0.486 | 0.478 | 0.557 | 0.525 | 0.584 | 0.489 | 0.539
25 | NCI-H596 | 0.766 | 0.702 | 0.775 | 0.751 | 0.565 | – | – | – | – | –
26 | NCI-H460 | 0.432 | 0.452 | 0.56 | 0.247 | 0.0552 | 0.145 | 0.286 | 0.175 | 0.121 | 0.103
27 | NCI-H647 | 0.457 | 0.445 | 0.598 | 0.482 | 0.236 | 0.393 | 0.319 | 0.25 | 0.242 | 0.219
28 | NCI-H838 | 0.616 | 0.546 | 0.792 | 0.379 | 0.155 | 0.207 | 0.262 | 0.186 | 0.213 | 0.171
29 | PC-14 | 0.452 | 0.582 | 0.901 | 0.445 | 0.27 | 0.539 | 0.511 | 0.439 | 0.561 | 0.415
30 | NCI-H358 | 0.334 | 0.359 | 0.31 | 0.166 | 0.132 | 0.178 | 0.138 | 0.137 | 0.153 | 0.153
31 | NCI-H1915 | 0.358 | 0.39 | 0.373 | 0.357 | 0.381 | 0.603 | 0.482 | 0.5 | 0.577 | 0.495
32 | 201T | 0.428 | 0.494 | 0.479 | 0.426 | 0.403 | 0.375 | 0.344 | 0.322 | 0.36 | 0.294
33 | NCI-H1437 | – | 0.348 | 0.281 | 0.196 | 0.163 | 0.334 | 0.413 | 0.318 | 0.361 | 0.325
34 | A-427 | 0.298 | 0.42 | 0.377 | 0.308 | 0.355 | 0.558 | 0.542 | 0.491 | 0.559 | 0.505
35 | HCC-366 | 0.515 | 0.616 | 0.672 | 0.612 | 0.571 | 0.35 | 0.384 | 0.39 | 0.393 | 0.353
